Reference: paper PMC8305076, “Comprehensive Evaluation of Biological Effects of Pentathiepins on Various Human Cancer Cell Lines and Insights into Their Mode of Action” (International Journal of Molecular Sciences, 2021)

Key:
Assay type in all cases: cell-based, human
[1] = tested on: Siso; experiment: alkaline Comet assay; details: 25 µM pentathiepin or 20 µM H2O2, 15 min, 0 °C
Excerpt: Next, the potential of the pentathiepins 1–6 to damage nuclear DNA was investigated in the cell lines HAP-1, HAP-1.KO.GPx1, and Siso, with different expression levels of GPx1 and CAT (see Figure 7), by Comet Assay (Figure 12) with representative images in the Supplementary Materials (Figure S48).
With this assay, the intensity of DNA damage can be assessed on the level of a single cell, in case of the alkaline version detecting both single and double strand breaks as well as alkali-labile sites. The method presented here is an adaptation of the protocol published by Olive and Banath and based on the distinct electrophoretic mobility of damaged and intact genomic DNA. The latter has a low mobility; does thus not migrate in the electric field; and remains in a nucleoid shape after lysis, referred to as the comet head. In contrast, when strand breaks are created, free charged ends emerge and increase the electrophoretic mobility, prompting DNA segments to drift away from the comet head, thereby forming the so-called comet tail. As descriptor of still intact genomic DNA, the percentage of DNA in the comet head was selected. Per condition, 50,000 cells of either Siso, HAP-1, or HAP-1.KO.GPx1 were diluted in 1 mL of PBS and subsequently treated with either a 1% DMF aqueous solution as negative control, 20 µM of H2O2 as positive control, or 25 µM of pentathiepin for 15 min on ice to impair intracellular DNA repair mechanisms. Afterwards, 400 µL of the cell suspension was blended with 1.2 mL of a 1% low melting point agarose solution (40 °C) and smoothly distributed on agarose-precoated glass slides. Polymerization was finished after 3 min at RT, and the slides were horizontally submerged in alkaline lysis buffer (1.2 M NaCl, 0.1% N-lauryl-sarcosinate, 0.1 M Na-EDTA, 0.26 M NaOH) before storing them at 4 °C overnight. The slides were then rinsed three times in rinse/electrophoresis buffer (0.002 M Na-EDTA, 0.03 M NaOH) before electrophoretic separation was performed for 25 min at 0.6 V/cm. A neutralization step by adding distilled water was followed by staining the slides with 250 µL of an aqueous 10 µg/mL PI solution for 20 min. For visualization and image capturing, a DMi8 fluorescent microscope and LASX software (Leica Microsystems, Wetzlar, Germany) were used, and the comets scored with the help of CometScore2.0 (rexhoover.com). Per condition and replicate, at least 100 comets were analyzed to calculate a mean level of damage.

[2] = tested on: HAP-1.KO.GPx1; experiment: annexin V-FITC/PI apoptosis assay; details: for early apoptotic cells: pentathiepins IC90, doxorubicin 0.5 µM, 24 h
Experimental: (§1) As reported in our earlier publication, a representative pentathiepin was capable of inducing apoptosis in cancer cell lines. Here, we tested compounds 1–6 for their ability to trigger this particular modality of cell death in a subset of four cell lines: HAP-1, HAP-1.KO.GPx1, A2780, and Siso. A flow cytometric assay was performed, allowing us to discriminate between viable, early, and late apoptotic cells (representative dot plots can be found in Figure S47). FITC-labeled annexin V was used to assess the externalization of phosphatidyl serine as a hallmark of early apoptosis induction. The addition of propidium iodide (PI) enabled the detection of late apoptotic cells as it only permeates porous cell membranes and exerts fluorescence once bound to double-stranded DNA.
(§2) The annexin V-FITC/PI assay, which discriminates between viable, early, and late apoptotic cells within a sample population, was performed according to the manufacturer’s instructions (Miltenyi Biotec, Teterow, Germany). Briefly, 125,000 cells were seeded in 2 mL per well of a 6-well plate, allowed to adhere overnight, and subsequently treated with the respective pentathiepin (IC90, see Table S4) diluted in 3 mL of medium. After incubation periods of 6, 24, or 48 h, the cells were harvested, washed with the provided binding buffer, and stained with the annexin V-FITC reagent for 20 min at room temperature (RT) in the dark. After another washing step, the pellet was resuspended, and PI was added immediately before flow cytometric measurement at λEx/Em = 488/525 ± 50 nm for FITC and λEx/Em = 488/655–730 nm for PI with the MACSquant Analyzer 10 (Miltenyi Biotec, Teterow, Germany).

[3] = tested on: Siso; experiment: annexin V-FITC/PI apoptosis assay; details: IC90, 24 h
Experimental: as §1, §2

[4] = tested on: HAP-1; experiment: annexin V-FITC/PI apoptosis assay; details: IC90, 24 h
Experimental: as §1, §2

[5] = tested on: A2780; experiment: cell cycle analysis (PI staining); details: IC90, 48 h
Experimental: The potent cytotoxicity and the potential to inhibit the proliferation of cancer cells accompanied by DNA damage effects raised the question as to whether cell cycle progression might be affected as a result of treatment with pentathiepins.
Cells were harvested by trypsinization, collected in 1.5 mL tubes, and washed twice with PBS by centrifuging for 5 min at 500× g and discarding the supernatant after every step. For fixation, 500 µL of ice-cold ethanol (70%) was added dropwise under vortexing with a subsequent incubation on ice for 30 min. Then, the cells were centrifuged for 10 min at 4000 rpm and 4 °C, the supernatant was removed, and the cells were resuspended in 500 µL of PBS containing 25 µg/mL of PI and 100 µg/mL of RNase. The staining solution was incubated for 30 min, and the cell suspension was measured at λEx/Em = 488/655–730 nm using a MACSquant Analyzer 10 (Miltenyi Biotec, Teterow, Germany).

For CCOc1c2c(c3ccc(C(=O)N4CCCCC4)cn13)SSSSS2 [Compound 2, (6-Ethoxy-[1,2,3,4,5]pentathiepino[6,7-a]indolizin-9-yl)(piperidinyl)methanone], the “intact genomic DNA (Comet head)” value [1] was 30%.

CCOc1c2c(c3ccc(C(=O)N4CCOCC4)cn13)SSSSS2 [Compound 3, (6-Ethoxy-[1,2,3,4,5]pentathiepino[6,7-a]indolizin-9-yl)(morpholino)methanone] was tested, and the late apoptotic cells ([2]; IC90, 24 h) was 6%, the early apoptotic cells [2] was 34% and the early apoptotic cells [3] was “about 20%”. For the same molecule, the late apoptotic cells [3] was “about 20%” and the late apoptotic cells [4] was “up to 12%”.

Molecule CCOc1c2c(c3ccc(C(=O)N4CCN(C(=O)c5ccc(F)cc5)CC4)cn13)SSSSS2 [Compound 5, (6-Ethoxy-[1,2,3,4,5]pentathiepino[6,7-a]indolizin-9-yl)(4-(4-fluorobenzoyl)piperazinyl)methanone] has an early apoptotic cells [2] of 15%.

With CCOc1c2c(c3ccc(C(=O)N4CCN(S(=O)(=O)c5ccc(C)cc5)CC4)cn13)SSSSS2 [Compound 6, (6-Ethoxy-[1,2,3,4,5]pentathiepino[6,7-a]indolizin-9-yl)(4-tosylpiperazinyl)methanone] the “relative amount of sub G1-phase cells” value [5] was 30%.
